Measured values taken from patent US20090306052A1, “INDENYL DERIVATIVES AND USE THEREOF FOR THE TREATMENT OF NEUROLOGICAL DISORDERS” (Glaxo Group Limited, priority 2004, published 2009).

Target: T1, histamine H3 receptor (Homo sapiens, UniProt Q9Y5N1)
T1 construct: expressed in transfected cells; host or cells: CHO K1 cells carrying the pSwitch regulatory plasmid, transfected with pGeneH3 and induced with mifepristone; clone 3H3; membrane preparation
Assay: Histamine H3 functional antagonist assay ([35S]-GTPγS SPA, membranes from cultured H3 cells)
Type: biochemical
Conditions: hydrochloride salts tested; averages of a number of experiments; membrane prepared from cultured H3 cells; read-out: functional pKi (fpKi), histamine H3 functional antagonist assay (converted)
Source text: A membrane preparation containing histamine H3 receptors may be prepared in accordance with the following procedures:
DNA encoding the human histamine H3 gene (Huvar, A. et al. (1999) Mol. Pharmacol. 55(6), 1101-1107) was cloned into a holding vector, pcDNA3.1 TOPO (InVitrogen) and its cDNA was isolated from this vector by restriction digestion of plasmid DNA with the enzymes BamH1 and Not-1 and ligated into the inducible expression vector pGene (InVitrogen) digested with the same enzymes. The GeneSwitch™ system (a system where in transgene expression is switched off in the absence of an inducer and switched on in the presence of an inducer) was performed as described in U.S. Pat. Nos. 5,364,791; 5,874,534; and 5,935,934. Ligated DNA was transformed into competent DH5α E. coli host bacterial cells and plated onto Luria Broth (LB) agar containing Zeocin™ (an antibiotic which allows the selection of cells expressing the sh ble gene which is present on pGene and pSwitch) at 50 μg ml^−1. Colonies containing the re-ligated plasmid were identified by restriction analysis. DNA for transfection into mammalian cells was prepared from 250 ml cultures of the host bacterium containing the pGeneH3 plasmid and isolated using a DNA preparation kit (Qiagen Midi-Prep) as per manufacturers guidelines (Qiagen).
CHO K1 cells previously transfected with the pSwitch regulatory plasmid (InVitrogen) were seeded at 2×10e6 cells per T75 flask in Complete Medium, containing Hams F12 (GIBCOBRL, Life Technologies) medium supplemented with 10% v/v dialysed foetal bovine serum, L-glutamine, and hygromycin (100 μg ml^−1), 24 hours prior to use. Plasmid DNA was transfected into the cells using Lipofectamine plus according to the manufacturers guidelines (InVitrogen). 48 hours post transfection cells were placed into complete medium supplemented with 500 μg ml^−1 Zeocin™.
10-14 days post selection 10 nM Mifepristone (InVitrogen), was added to the culture medium to induce the expression of the receptor. 18 hours post induction cells were detached from the flask using ethylenediamine tetra-acetic acid (EDTA; 1:5000; InVitrogen), following several washes with phosphate buffered saline pH 7.4 and resuspended in Sorting Medium containing Minimum Essential Medium (MEM), without phenol red, and supplemented with Earles salts and 3% Foetal Clone II (Hyclone). Approximately 1×10e7 cells were examined for receptor expression by staining with a rabbit polyclonal antibody, 4a, raised against the N-terminal domain of the histamine H3 receptor, incubated on ice for 60 minutes, followed by two washes in sorting medium. Receptor bound antibody was detected by incubation of the cells for 60 minutes on ice with a goat anti rabbit antibody, conjugated with Alexa 488 fluorescence marker (Molecular Probes). Following two further washes with Sorting Medium, cells were filtered through a 50 μm Filcon™ (BD Biosciences) and then analysed on a FACS Vantage SE Flow Cytometer fitted with an Automatic Cell Deposition Unit. Control cells were non-induced cells treated in a similar manner. Positively stained cells were sorted as single cells into 96-well plates, containing Complete Medium containing 500 μg ml^−1 Zeocin™ and allowed to expand before reanalysis for receptor expression via antibody and ligand binding studies. One clone, 3H3, was selected for membrane preparation.
All steps of the protocol are carried out at 4° C. and with pre-cooled reagents. […]

T1 sequence (Q9Y5N1 whole entry): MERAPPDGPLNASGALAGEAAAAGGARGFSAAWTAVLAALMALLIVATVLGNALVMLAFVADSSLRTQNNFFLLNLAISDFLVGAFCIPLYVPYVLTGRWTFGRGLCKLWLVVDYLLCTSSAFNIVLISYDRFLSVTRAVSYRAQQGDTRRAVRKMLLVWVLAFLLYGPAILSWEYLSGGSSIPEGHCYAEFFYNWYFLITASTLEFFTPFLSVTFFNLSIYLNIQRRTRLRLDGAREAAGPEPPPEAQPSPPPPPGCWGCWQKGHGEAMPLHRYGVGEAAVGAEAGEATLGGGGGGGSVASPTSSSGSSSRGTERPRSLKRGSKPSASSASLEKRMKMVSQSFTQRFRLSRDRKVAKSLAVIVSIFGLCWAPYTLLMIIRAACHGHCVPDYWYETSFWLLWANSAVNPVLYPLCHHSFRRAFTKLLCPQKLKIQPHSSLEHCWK

Ki [nM]	SMILES
< 1	O=C1CCCN1c1ccc(Oc2ccc3c(c2)CC(N2CCCC2)C3)nc1 (racemic) [Example 3, 1-(6-{[2-(1-Pyrrolidinyl)-2,3-dihydro-1H-inden-5-yl]oxy}-3-pyridinyl)-2-pyrrolidinone]
< 1	CNC(=O)c1ccc(Oc2ccc3c(c2)CC(N2CCCC2)C3)nc1 (single isomer, unassigned; (-)) [Example 22, (−)-Enantiomer N-methyl-6-{[2-(1-pyrrolidinyl)-2,3-dihydro-1H-inden-5-yl]oxy}-3-pyridinecarboxamide]
< 1	O=C1CCCN1c1ccc(Oc2ccc3c(c2)CC(N2CCCC2)C3)nc1 (single isomer, unassigned; enantiomer 1) [Example 4, (−)-Enantiomer 1-(6-{[2-(1-Pyrrolidinyl)-2,3-dihydro-1H-inden-5-yl]oxy}-3-pyridinyl)-2-pyrrolidinone]
< 1	O=C(c1ccc(Oc2ccc3c(c2)CC(N2CCCC2)C3)nc1)N1CCCC1 (centres unmarked) [Example 12, 5-(1-Pyrrolidinylcarbonyl)-2-{[2-(1-pyrrolidinyl)-2,3-dihydro-1H-inden-5-yl]oxy}pyridine]
< 1	C[C@H]1CCCN1C1Cc2ccc(Oc3ccc(N4CCCC4=O)cn3)cc2C1 (stereo partly drawn) [Example 20, 1-[6-({2-[(2S)-2-Methyl-1-pyrrolidinyl]-2,3-dihydro-1H-inden-5-yl}oxy)-3-pyridinyl]-2-pyrrolidinone]
